What was measured:
[1] = molecular target: 5-HT2A receptor (Homo sapiens, UniProt P28223); conditions: Flanagan and Nichols, 2018; cited from earlier work
[2] = Flanagan and Nichols, 2018; cited from earlier work
[3] = molecular target: T1, p38-alpha (MAPK14) (Homo sapiens, UniProt Q16539); assay: MAPK binding affinity screen (DiscoveRx); conditions: component alone
T1 construct: purchased DiscoveRx

[4] = molecular target: T2, JNK3 (MAPK10) (Homo sapiens, UniProt P53779); assay: MAPK binding affinity screen (DiscoveRx); conditions: component alone
T2 construct: purchased DiscoveRx

[5] = molecular target: T3, TRKA (NTRK1) (Homo sapiens, UniProt P04629); assay: MAPK binding affinity screen (DiscoveRx); conditions: component alone
T3 construct: purchased DiscoveRx

[6] = molecular target: T4, TRKB (NTRK2) (Homo sapiens, UniProt Q16620); assay: MAPK binding affinity screen (DiscoveRx); conditions: component alone, row of combination at 5 μg/mL
T4 construct: purchased DiscoveRx

[7] = molecular target: T5, JAK1 (JH1domain-catalytic) (Homo sapiens, UniProt P23458); assay: MAPK binding affinity screen (DiscoveRx); conditions: component alone
T5 construct: (JH1domain-; purchased DiscoveRx

[8] = molecular target: T6, ROCK2 (Homo sapiens, UniProt O75116); assay: MAPK binding affinity screen (DiscoveRx); conditions: component alone, row of combination at 62.5 μg/mL
T6 construct: purchased DiscoveRx

[9] = cited from earlier work
[10] = molecular target: T7, MAO-A (Homo sapiens, UniProt P21397); conditions: Herraiz et al., 2010; cited from earlier work
T7 sequence (P21397 1-527): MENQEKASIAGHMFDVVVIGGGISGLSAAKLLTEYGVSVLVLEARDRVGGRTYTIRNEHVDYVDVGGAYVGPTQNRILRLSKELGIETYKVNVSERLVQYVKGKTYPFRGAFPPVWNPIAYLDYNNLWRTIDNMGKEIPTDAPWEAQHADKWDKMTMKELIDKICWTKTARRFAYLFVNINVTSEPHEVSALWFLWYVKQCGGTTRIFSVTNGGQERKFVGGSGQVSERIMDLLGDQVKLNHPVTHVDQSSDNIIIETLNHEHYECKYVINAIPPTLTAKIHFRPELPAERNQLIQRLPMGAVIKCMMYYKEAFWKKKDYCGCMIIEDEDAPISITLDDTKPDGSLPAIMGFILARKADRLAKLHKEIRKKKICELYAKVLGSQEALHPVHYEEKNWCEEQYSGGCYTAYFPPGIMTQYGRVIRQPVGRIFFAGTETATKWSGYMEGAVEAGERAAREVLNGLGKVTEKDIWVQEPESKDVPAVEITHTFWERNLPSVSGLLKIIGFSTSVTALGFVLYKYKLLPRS

[11] = molecular target: T8, MAO-B (Homo sapiens, UniProt P27338); conditions: Herraiz et al., 2010; cited from earlier work
T8 sequence (P27338 1-520): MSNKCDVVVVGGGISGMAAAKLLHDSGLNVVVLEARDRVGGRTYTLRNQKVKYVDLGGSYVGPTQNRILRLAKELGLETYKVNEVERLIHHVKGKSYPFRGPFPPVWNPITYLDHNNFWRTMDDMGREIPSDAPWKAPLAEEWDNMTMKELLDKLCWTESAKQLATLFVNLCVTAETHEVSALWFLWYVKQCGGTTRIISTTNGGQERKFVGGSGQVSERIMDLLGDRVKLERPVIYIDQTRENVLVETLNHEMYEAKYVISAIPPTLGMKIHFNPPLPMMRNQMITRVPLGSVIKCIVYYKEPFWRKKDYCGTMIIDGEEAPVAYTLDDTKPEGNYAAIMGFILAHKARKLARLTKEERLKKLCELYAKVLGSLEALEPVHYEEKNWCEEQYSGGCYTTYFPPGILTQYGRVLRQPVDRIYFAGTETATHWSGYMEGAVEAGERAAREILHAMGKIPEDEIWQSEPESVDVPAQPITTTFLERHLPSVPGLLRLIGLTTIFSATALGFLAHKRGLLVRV

[12] = system: PC12 cells; assay: Neurite outgrowth in rat PC12 cells; assay type: cell-based; conditions: 6 days
Text: Rat PC12 cells are a cell line derived from rat pheochromocytoma and are an immortalised cell line similar to the primary culture of fetal neurons. These cells are relatively easy to passage and culture and have some features of neurons, which makes them useful in the study of nerve physiology and pharmacology.

[13] = system: TNF-α; assay: TNF-α expression in LPS-induced human PBMCs; assay type: cell-based; conditions: 100 ng/mL LPS, individual components, FIG. 13
[14] = system: IL-10; assay: IL-10 expression in human PBMCs under standard non-inflammatory conditions; assay type: cell-based; conditions: at multiple concentrations
Procedure: In a separate experiment, human peripheral blood mononuclear cells (PBMCs) were treated with different concentrations of norbaeocystin, norpsilocin, and vehicle control under standard non-inflammatory conditions, and IL-10 expression was measured.

[15] = system: IL-6; conditions: human PBMCs, 100 ng/mL LPS; 0.43 μg/mL; FIG. 12
[16] = system: MAPK; assay: MAPK binding screen, general statements; conditions: low ng concentrations
Text: It was identified that many combination formulations of tryptamines, He/PEP/Erinacine C, and niacin can interact with several mitogen-activated protein kinases (MAPKs) involved with brain health and can even provide synergistic benefits (Tables 7-8).
It was surprising and unexpected that such dilute psilocin at low ng concentrations produced a synergistic effect on MAPK binding when combined with other components because these low concentrations had no effect on MAPK binding when used alone. Therefore, one would have expected these low concentrations to be ineffective. The low concentrations also overcome the pharmacodynamic issues faced when using high concentrations of psilocin.

[17] = row of combination at 125 μg/mL
[18] = row of combination at 2.5 μg/mL
[19] = row of combination at 16, 16 ng/mL
[20] = row of combination at 3, 0.2 ng/mL
[21] = row of combination at 0.6, 0.6 ng/mL
[22] = row of combination at 250 μg/mL

T2 sequence (P53779 whole entry): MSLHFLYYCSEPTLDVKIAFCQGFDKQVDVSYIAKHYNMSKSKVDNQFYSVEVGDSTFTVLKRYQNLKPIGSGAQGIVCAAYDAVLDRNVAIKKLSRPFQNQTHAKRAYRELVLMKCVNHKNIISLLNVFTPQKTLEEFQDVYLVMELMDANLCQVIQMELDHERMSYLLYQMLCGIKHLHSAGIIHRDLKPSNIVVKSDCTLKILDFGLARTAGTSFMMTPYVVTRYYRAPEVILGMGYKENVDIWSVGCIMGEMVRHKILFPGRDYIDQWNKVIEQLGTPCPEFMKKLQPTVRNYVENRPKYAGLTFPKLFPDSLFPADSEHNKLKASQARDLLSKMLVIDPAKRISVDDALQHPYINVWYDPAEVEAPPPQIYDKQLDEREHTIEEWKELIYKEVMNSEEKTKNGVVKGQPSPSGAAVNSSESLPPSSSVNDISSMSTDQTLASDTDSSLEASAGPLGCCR
T3 sequence (P04629 33-796): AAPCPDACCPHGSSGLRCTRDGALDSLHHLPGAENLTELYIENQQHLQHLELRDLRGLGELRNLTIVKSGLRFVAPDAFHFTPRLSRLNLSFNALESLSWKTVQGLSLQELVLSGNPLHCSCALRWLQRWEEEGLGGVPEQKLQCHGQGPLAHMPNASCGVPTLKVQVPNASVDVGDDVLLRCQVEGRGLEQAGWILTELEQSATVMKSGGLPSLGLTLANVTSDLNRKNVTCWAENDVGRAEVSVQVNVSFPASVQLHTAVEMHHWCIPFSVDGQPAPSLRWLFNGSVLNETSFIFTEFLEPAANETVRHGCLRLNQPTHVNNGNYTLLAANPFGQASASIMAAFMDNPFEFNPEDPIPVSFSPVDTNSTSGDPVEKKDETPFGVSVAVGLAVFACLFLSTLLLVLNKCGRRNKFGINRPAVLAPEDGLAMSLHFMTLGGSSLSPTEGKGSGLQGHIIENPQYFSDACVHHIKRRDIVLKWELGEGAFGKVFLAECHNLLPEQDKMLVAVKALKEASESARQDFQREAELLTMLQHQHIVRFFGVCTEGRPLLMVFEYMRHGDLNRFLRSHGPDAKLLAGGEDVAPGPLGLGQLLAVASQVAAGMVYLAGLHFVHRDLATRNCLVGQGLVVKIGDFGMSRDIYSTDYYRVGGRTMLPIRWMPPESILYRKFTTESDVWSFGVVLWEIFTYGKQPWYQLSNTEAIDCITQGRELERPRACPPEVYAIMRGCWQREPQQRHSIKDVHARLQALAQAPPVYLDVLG
T5 sequence (P23458 875-1153 limits assumed): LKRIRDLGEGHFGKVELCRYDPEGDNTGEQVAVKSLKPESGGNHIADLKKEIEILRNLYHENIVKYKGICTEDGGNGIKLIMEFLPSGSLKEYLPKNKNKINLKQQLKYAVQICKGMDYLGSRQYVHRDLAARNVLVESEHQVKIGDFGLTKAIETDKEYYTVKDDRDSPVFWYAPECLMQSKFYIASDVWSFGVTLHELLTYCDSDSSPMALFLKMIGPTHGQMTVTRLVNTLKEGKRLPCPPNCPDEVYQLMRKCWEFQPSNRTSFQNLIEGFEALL
T1 sequence (Q16539 whole entry): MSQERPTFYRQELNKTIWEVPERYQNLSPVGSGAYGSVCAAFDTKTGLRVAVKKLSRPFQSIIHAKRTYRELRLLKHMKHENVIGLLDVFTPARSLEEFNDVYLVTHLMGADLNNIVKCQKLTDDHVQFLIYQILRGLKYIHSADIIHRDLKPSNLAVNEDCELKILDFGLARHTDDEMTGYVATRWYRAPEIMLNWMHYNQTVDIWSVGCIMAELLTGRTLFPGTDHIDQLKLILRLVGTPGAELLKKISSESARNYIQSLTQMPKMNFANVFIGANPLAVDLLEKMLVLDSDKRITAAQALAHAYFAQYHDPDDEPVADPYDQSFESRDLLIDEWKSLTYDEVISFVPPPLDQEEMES
T4 sequence (Q16620 32-822): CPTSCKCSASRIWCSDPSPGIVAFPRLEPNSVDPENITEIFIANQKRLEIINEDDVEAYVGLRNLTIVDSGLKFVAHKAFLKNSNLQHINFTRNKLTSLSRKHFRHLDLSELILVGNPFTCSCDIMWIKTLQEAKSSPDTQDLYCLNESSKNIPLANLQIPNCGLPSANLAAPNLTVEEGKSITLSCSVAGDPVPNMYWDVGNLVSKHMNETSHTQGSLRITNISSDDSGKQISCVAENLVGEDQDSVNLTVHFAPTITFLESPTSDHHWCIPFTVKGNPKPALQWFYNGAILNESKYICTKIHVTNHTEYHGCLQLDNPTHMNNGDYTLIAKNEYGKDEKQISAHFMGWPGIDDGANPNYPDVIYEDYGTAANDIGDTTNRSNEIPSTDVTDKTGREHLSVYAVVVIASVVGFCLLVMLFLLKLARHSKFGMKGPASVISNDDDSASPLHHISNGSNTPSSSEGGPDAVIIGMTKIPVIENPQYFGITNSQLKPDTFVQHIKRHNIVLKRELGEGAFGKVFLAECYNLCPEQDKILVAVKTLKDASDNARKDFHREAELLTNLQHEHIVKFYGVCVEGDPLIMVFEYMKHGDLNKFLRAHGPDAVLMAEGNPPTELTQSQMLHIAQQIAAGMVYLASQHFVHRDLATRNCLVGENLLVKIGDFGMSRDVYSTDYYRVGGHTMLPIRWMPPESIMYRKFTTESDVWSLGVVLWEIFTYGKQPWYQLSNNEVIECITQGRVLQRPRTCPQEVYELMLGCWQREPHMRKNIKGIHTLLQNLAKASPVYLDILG
Chain of 5-HT2A receptor (P28223 whole entry): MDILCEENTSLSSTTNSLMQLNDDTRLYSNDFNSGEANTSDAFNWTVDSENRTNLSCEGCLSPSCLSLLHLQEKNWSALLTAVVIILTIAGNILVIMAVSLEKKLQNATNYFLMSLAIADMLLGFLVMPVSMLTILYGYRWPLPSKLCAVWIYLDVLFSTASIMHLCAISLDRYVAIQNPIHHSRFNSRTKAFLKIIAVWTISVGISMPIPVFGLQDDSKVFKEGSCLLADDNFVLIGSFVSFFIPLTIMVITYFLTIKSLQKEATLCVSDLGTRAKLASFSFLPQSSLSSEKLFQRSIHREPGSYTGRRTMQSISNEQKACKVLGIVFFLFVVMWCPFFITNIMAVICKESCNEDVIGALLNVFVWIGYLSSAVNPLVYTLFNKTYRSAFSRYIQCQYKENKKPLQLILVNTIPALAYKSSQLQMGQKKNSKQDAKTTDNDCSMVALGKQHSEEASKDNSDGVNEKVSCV
T6 sequence (O75116 whole entry): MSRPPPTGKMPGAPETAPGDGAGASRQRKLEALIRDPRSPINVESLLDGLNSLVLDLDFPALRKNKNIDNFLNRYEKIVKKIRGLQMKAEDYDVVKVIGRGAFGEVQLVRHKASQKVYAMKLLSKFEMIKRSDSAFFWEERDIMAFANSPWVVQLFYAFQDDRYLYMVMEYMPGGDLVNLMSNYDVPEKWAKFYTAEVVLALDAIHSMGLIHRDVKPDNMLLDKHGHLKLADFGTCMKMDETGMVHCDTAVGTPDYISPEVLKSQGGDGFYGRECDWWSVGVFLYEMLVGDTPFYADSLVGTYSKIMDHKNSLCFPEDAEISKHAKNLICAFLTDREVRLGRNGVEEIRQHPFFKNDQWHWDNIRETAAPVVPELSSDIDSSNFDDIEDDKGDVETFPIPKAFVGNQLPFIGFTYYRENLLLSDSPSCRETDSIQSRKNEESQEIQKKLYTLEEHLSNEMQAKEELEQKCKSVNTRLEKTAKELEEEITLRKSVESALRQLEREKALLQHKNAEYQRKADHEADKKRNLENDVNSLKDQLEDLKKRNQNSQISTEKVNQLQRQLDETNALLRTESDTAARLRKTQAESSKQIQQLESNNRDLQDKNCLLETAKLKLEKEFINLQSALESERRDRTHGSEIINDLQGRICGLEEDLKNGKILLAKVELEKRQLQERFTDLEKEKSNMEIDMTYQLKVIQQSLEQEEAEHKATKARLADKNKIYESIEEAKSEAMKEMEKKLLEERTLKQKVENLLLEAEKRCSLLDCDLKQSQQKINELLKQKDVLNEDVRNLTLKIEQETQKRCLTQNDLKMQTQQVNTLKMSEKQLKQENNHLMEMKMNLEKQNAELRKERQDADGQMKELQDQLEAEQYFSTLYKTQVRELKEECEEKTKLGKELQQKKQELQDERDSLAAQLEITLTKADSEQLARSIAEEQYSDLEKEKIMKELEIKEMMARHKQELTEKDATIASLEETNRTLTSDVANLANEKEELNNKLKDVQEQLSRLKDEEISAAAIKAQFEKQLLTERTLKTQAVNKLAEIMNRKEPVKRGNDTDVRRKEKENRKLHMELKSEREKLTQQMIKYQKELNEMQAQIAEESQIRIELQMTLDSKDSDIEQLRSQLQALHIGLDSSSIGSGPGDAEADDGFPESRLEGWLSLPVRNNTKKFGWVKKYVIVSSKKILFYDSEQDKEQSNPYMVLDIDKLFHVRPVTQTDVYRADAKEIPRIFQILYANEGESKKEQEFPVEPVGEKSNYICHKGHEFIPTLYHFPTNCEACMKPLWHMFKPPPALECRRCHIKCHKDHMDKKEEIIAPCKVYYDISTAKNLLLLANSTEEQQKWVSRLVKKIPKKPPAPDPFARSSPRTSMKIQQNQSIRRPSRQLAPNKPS

In the case of `COc1cc(C[C@@H](C)N)c(OC)cc1I` [(R)-2,5-dimethoxy-4-iodoamphetamine], the 5-HT2A receptor activation [1] is listed as “activate the 5-HT2A receptor” and the “inflammation in the lungs” value [2] is listed as “prevent and reverse inflammation in the lungs”.

In the case of `CNCCc1c[nH]c2cccc(OP(=O)(O)O)c12` [Baeo, 4-phosphoryloxy-N-methyltryptamine], the “MAPK binding affinity value of individual component” value (from here on “MAPK binding affinity value”) ([3]; combinations at 2.5 μg/mL) was 2, the “MAPK binding affinity value” value ([3]; combinations at 5 μg/mL) was 9 and the “MAPK binding affinity value” value ([3]; combinations at 10 μg/mL) was 1. For the same molecule, the “MAPK binding affinity value” value ([3]; combinations at 250 μg/mL) was 1, the “MAPK binding affinity value” value [4, 17] was 8 and the “MAPK binding affinity value” value ([5]; combinations at 250 μg/mL) was 6. The “MAPK binding affinity value” value [5, 17] was 3, the “MAPK binding affinity value” value [6] was 12 and the “MAPK binding affinity value” value [7, 18] was 1. The “MAPK binding affinity value” value [8] was 0, the “hallucinogenic effect after consumption” value ([9]; 4 mg, anecdotal, Gartz 1991) was “gentle hallucinogenic experience” and the “hallucinogenic effect after oral consumption” value ([9]; 10 mg and 20 mg, case studies) was “did not produce any hallucinogenic effects”.

For `CN(C)CCc1c[nH]c2ccccc12` [DMT, N,N-dimethyltryptamine], the “MAPK binding affinity value” value [7, 19] was 5.

With `CC(C)C1=C2C3=CC=C(CO)[C@H]4O[C@H]5[C@@H](OC[C@@H](O)[C@@H]5O)O[C@@H]4[C@]3(C)CC[C@@]2(C)CC1` [Erinacine C] the “MAPK binding affinity value” value [4, 20] was 6.

For `COc1ccc2c(c1)[nH]c1c(C)nccc12` [Harmine, 7-methyoxy-1-methyl-carboline], the MAO-A inhibition [10] is given as “specific MAO-A inhibitors” and the MAO-B inhibition [11] is given as “poor inhibitors of MAO-B”.

In the case of `O=C(O)c1cccnc1` [Niacin, nicotinic acid, reference compound], the “MAPK binding affinity value” value [4, 21] was 0, the “MAPK binding affinity value” value [7, 22] was 6 and the “MAPK binding affinity value” value [7, 19] was 5. The “highest mean neurite outgrowth, of vehicle control” value ([12]; 0.35 μg/mL) was 112% and the “anti-inflammatory effect (TNF-α expression)” value [13] was “have anti-inflammatory effects at certain concentrations”.

For `NCCc1c[nH]c2cccc(OP(=O)(O)O)c12` [Norbaeo, 4-phosphoryloxy-tryptamine], the “MAPK binding affinity value” value ([3]; combinations at 2.5 μg/mL) was 22, the “MAPK binding affinity value” value ([3]; combinations at 5 μg/mL) was 12 and the “MAPK binding affinity value” value ([3]; combinations at 10 μg/mL) was 17. The “MAPK binding affinity value” value ([4]; row of combination at 5 μg/mL) was 4, the “MAPK binding affinity value” value [4, 17] was 4 and the “MAPK binding affinity value” value ([5]; combinations at 250 μg/mL) was 3. For the same molecule, the “MAPK binding affinity value” value [6] was 0, the “MAPK binding affinity value” value [7, 18] was 3 and the “MAPK binding affinity value” value ([7]; rows of combinations at 62.5 μg/mL) was 3. For the same molecule, the “expression of the anti-inflammatory cytokine IL-10” value [14] was “significantly upregulate” and the IL-6 expression [15] was “significantly reduced”.

For `CNCCc1c[nH]c2cccc(O)c12` [Norpsilo, 4-hydroxy-N-methyl-tryptamine], the “MAPK binding affinity value” value ([3]; combinations at 2.5 μg/mL) was 15, the “MAPK binding affinity value” value ([3]; combinations at 5 μg/mL) was 1 and the “MAPK binding affinity value” value ([3]; combinations at 10 μg/mL) was 21. For the same molecule, the “MAPK binding affinity value” value ([3]; combinations at 250 μg/mL) was 21, the “MAPK binding affinity value” value ([4]; row of combination at 5 μg/mL) was 19 and the “MAPK binding affinity value” value [7, 22] was 0. For the same molecule, the “expression of the anti-inflammatory cytokine IL-10” value [14] was “significantly upregulate” and the “anti-inflammatory effect (TNF-α expression)” value [13] was “have anti-inflammatory effects at certain concentrations”.

For `CN(C)CCc1c[nH]c2cccc(O)c12` [Psilocin, 4-hydroxy-N,N-dimethyltryptamine], the “MAPK binding affinity value” value [4, 21] was 1, the “MAPK binding affinity value” value [4, 20] was 2 and the “MAPK binding affinity value” value ([7]; row of combination at 30, 1.8 ng/mL) was 1. The “highest mean neurite outgrowth, of vehicle control” value ([12]; 0.043 μg/mL) was 168% and the “effect on MAPK binding when used alone” value [16] was “no effect”.

For `COc1ccc2c3c([nH]c2c1)C(C)=NCC3` [harmaline, 3,4-dihydro-7-methoxy-1-methyl-carboline], the MAO-A inhibition [10] is listed as “specific MAO-A inhibitors” and the MAO-B inhibition [11] is listed as “poor inhibitors of MAO-B”.

— US20240082274A1, “FUNGAL COMPOUND COMPOSITIONS AND METHODS FOR MODULATING INFLAMMATION” (TURTLE BEAR HOLDINGS, LLC, priority 2021, published 2024)
